Source: PubChem BioAssay AID2060604 (Molecular Pharmacology Branch, DTP, NCI, 2025)
Several values for one entry are separate records, joined by “and”; a condition that tells them apart may be missing. Equal entries are not always repeated.

Tested on: 379773-124-R-J2-PDC complex spheroids, viability % test/control
Assay: Anticancer human tumor 379773-124-R-J2-PDC patient-derived endometrial carcinoma cell line growth inhibition [CLK]
Conditions: for viability, T/C: stronger effect = lower value
How it was run: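 Multi-cell-type spheroids combined patient-derived tumor cells with HUVEC endothelial cells and human mesenchymal stem cells. Paired agents were dosed in half-log steps down from about clinical Cmax, or from 10 microM where Cmax was unknown.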

[1] = curve of first compound, second compound 0.0316 µM
[2] = curve of first compound, second compound 0.1 µM
[3] = curve of first compound, second compound 0.316 µM
[4] = curve of first compound, second compound 1 µM
[5] = curve of first compound, second compound 3.16 µM
[6] = curve of first compound, second compound 10 µM
[7] = second compound 0.0316 µM, first compound 0.0316 µM
[8] = second compound 0.0316 µM, first compound 0.1 µM
[9] = second compound 0.0316 µM, first compound 0.316 µM
[10] = second compound 0.0316 µM, first compound 1 µM
[11] = second compound 0.0316 µM, first compound 3.16 µM
[12] = second compound 0.0316 µM, first compound 10 µM
[13] = second compound 0.1 µM, first compound 0.0316 µM
[14] = second compound 0.1 µM, first compound 0.1 µM
[15] = second compound 0.1 µM, first compound 0.316 µM
[16] = second compound 0.1 µM, first compound 1 µM
[17] = second compound 0.1 µM, first compound 3.16 µM
[18] = second compound 0.1 µM, first compound 10 µM
[19] = second compound 0.316 µM, first compound 0.0316 µM
[20] = second compound 0.316 µM, first compound 0.1 µM
[21] = second compound 0.316 µM, first compound 0.316 µM
[22] = second compound 0.316 µM, first compound 1 µM
[23] = second compound 0.316 µM, first compound 3.16 µM
[24] = second compound 0.316 µM, first compound 10 µM
[25] = second compound 1 µM, first compound 0.0316 µM
[26] = second compound 1 µM, first compound 0.1 µM
[27] = second compound 1 µM, first compound 0.316 µM
[28] = second compound 1 µM, first compound 1 µM
[29] = second compound 1 µM, first compound 3.16 µM
[30] = second compound 1 µM, first compound 10 µM
[31] = second compound 3.16 µM, first compound 0.0316 µM
[32] = second compound 3.16 µM, first compound 0.1 µM
[33] = second compound 3.16 µM, first compound 0.316 µM
[34] = second compound 3.16 µM, first compound 1 µM
[35] = second compound 3.16 µM, first compound 3.16 µM
[36] = second compound 3.16 µM, first compound 10 µM
[37] = second compound 10 µM, first compound 0.0316 µM
[38] = second compound 10 µM, first compound 0.1 µM
[39] = second compound 10 µM, first compound 0.316 µM
[40] = second compound 10 µM, first compound 1 µM
[41] = second compound 10 µM, first compound 3.16 µM
[42] = second compound 10 µM, first compound 10 µM
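Further: compound exposure lasted seven days before the viability readout.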
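Wherever viability, T/C is given: 100% = DMSO vehicle control wells.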

C=CC(=O)N1CCN(c2nc(=O)n(-c3c(C)ccnc3C(C)C)c3nc(-c4c(O)cccc4F)c(F)cc23)C(C)C1 (configuration not stated) + CN1CCN(c2cc(C(=O)Nc3cc4cc(-c5cnn(C)c5)ccc4cn3)ccn2)CC1
IC50 [1]: > 10 µM
IC50 [2]: > 10 µM
IC50 [3]: < 0.0316 µM
IC50 [4]: < 0.0316 µM
IC50 [5]: < 0.0316 µM
IC50 [6]: < 0.0316 µM
viability, T/C [7]: 105%
viability, T/C [8]: 92.5%
viability, T/C [9]: 91.2%
viability, T/C [10]: 94.4%
viability, T/C [11]: 84.6%
viability, T/C [12]: 75.2%
viability, T/C [13]: 85.5%
viability, T/C [14]: 79.2%
viability, T/C [15]: 72.5%
viability, T/C [16]: 88.1%
viability, T/C [17]: 84.2%
viability, T/C [18]: 62.5%
viability, T/C [19]: 29.6%
viability, T/C [20]: 32.8%
viability, T/C [21]: 29.3%
viability, T/C [22]: 29.2%
viability, T/C [23]: 38.5%
viability, T/C [24]: 13.2%
viability, T/C [25]: 0.15%
viability, T/C [26]: 3.06%
viability, T/C [27]: 0.25%
viability, T/C [28]: 1.12%
viability, T/C [29]: 1.01%
viability, T/C [30]: 0.17%
viability, T/C [31]: 0.18%
viability, T/C [32]: 0.13%
viability, T/C [33]: 0.13%
viability, T/C [34]: 0.34%
viability, T/C [35]: 1.33%
viability, T/C [36]: 1.3%
viability, T/C [37]: 0.12%
viability, T/C [38]: 0.54%
viability, T/C [39]: 1.42%
viability, T/C [40]: 0.17%
viability, T/C [41]: 1.04%
viability, T/C [42]: 0.5%

CCCS(=O)(=O)Nc1ccc(F)c(C(=O)c2c[nH]c3ncc(-c4ccc(Cl)cc4)cc23)c1F + CNC(=O)c1ccc(Nc2nc(OC3CCCC3)c3c(-c4ccc5nc(C)oc5c4)c[nH]c3n2)c(OC)c1
IC50 [1]: 8.07 µM
IC50 [2]: < 0.0316 µM
IC50 [3]: < 0.0316 µM
IC50 [4]: < 0.0316 µM
IC50 [5]: < 0.0316 µM
IC50 [6]: < 0.0316 µM
viability, T/C [7]: 74.1%
viability, T/C [8]: 81.7%
viability, T/C [9]: 82.3%
viability, T/C [10]: 91.5%
viability, T/C [11]: 72.3%
viability, T/C [12]: 44.9%
viability, T/C [13]: 42%
viability, T/C [14]: 39%
viability, T/C [15]: 34.4%
viability, T/C [16]: 41.1%
viability, T/C [17]: 38%
viability, T/C [18]: 17.4%
viability, T/C [19]: 39.5%
viability, T/C [20]: 30.1%
viability, T/C [21]: 39%
viability, T/C [22]: 38.6%
viability, T/C [23]: 39.8%
viability, T/C [24]: 22.2%
viability, T/C [25]: 38.7%
viability, T/C [26]: 35.2%
viability, T/C [27]: 31%
viability, T/C [28]: 31.6%
viability, T/C [29]: 35.8%
viability, T/C [30]: 19%
viability, T/C [31]: 35%
viability, T/C [32]: 36.7%
viability, T/C [33]: 35.7%
viability, T/C [34]: 32.3%
viability, T/C [35]: 32.4%
viability, T/C [36]: 18.2%
viability, T/C [37]: 33.5%
viability, T/C [38]: 27.9%
viability, T/C [39]: 29.6%
viability, T/C [40]: 39.1%
viability, T/C [41]: 40.4%
viability, T/C [42]: 13.2%

COc1cccc2c1C(=O)c1c(O)c3c(c(O)c1C2=O)CC(O)(C(=O)CO)CC3OC1CC(N)C(O)C(C)O1 (configuration not stated) + CN1CCN(c2cc(C(=O)Nc3cc4cc(-c5cnn(C)c5)ccc4cn3)ccn2)CC1
IC50 [1]: < 0.0316 µM
IC50 [2]: < 0.0316 µM
IC50 [3]: < 0.0316 µM
IC50 [4]: < 0.0316 µM
IC50 [5]: < 0.0316 µM
IC50 [6]: < 0.0316 µM
viability, T/C [7]: 41%
viability, T/C [8]: 11.9%
viability, T/C [9]: 5.69%
viability, T/C [10]: 3.76%
viability, T/C [11]: 0.3%
viability, T/C [12]: 0.91%
viability, T/C [13]: 30.5%
viability, T/C [14]: 10.3%
viability, T/C [15]: 9.14%
viability, T/C [16]: 3.16%
viability, T/C [17]: 0.33%
viability, T/C [18]: 0.09%
viability, T/C [19]: 8.53%
viability, T/C [20]: 8.1%
viability, T/C [21]: 3.09%
viability, T/C [22]: 2.71%
viability, T/C [23]: 0.12%
viability, T/C [24]: 0.21%
viability, T/C [25]: 0.13%
viability, T/C [26]: 0.1%
viability, T/C [27]: 0.78%
viability, T/C [28]: 1.01%
viability, T/C [29]: 0.06%
viability, T/C [30]: 0.16%
viability, T/C [31]: 2.21%
viability, T/C [32]: 0.27%
viability, T/C [33]: 1.48%
viability, T/C [34]: 0.04%
viability, T/C [35]: 0.07%
viability, T/C [36]: 0.17%
viability, T/C [37]: 1.64%
viability, T/C [38]: 0.35%
viability, T/C [39]: 0.12%
viability, T/C [40]: 2.01%
viability, T/C [41]: 0.31%
viability, T/C [42]: 0.12%

COc1ccc([C@@H](O)c2cc(-c3ncnc4cc(N5CCOCC5)ccc34)c(F)cc2Cl)nn1
viability, T/C (compound 0.0316 µM): 95.4% and 83.8%
viability, T/C (compound 0.1 µM): 98.1% and 79.4%
viability, T/C (compound 0.316 µM): 81.3% and 79.2%
viability, T/C (compound 1 µM): 84.2% and 84.5%
viability, T/C (compound 3.16 µM): 68% and 79%
viability, T/C (compound 10 µM): 33.4% and 29.9%
IC50 (curve of compound): 5.67 µM and 6.25 µM

CC(=O)O[C@H]1C(=O)[C@@]2(C)[C@H]([C@H](OC(=O)c3ccccc3)[C@]3(O)C[C@H](OC(=O)[C@H](O)[C@@H](NC(=O)c4ccccc4)c4ccccc4)C(C)=C1C3(C)C)[C@]1(OC(C)=O)CO[C@@H]1C[C@@H]2O + CNC(=O)c1ccc(Nc2nc(OC3CCCC3)c3c(-c4ccc5nc(C)oc5c4)c[nH]c3n2)c(OC)c1
IC50 [1]: < 0.0316 µM
IC50 [2]: < 0.0316 µM
IC50 [3]: < 0.0316 µM
IC50 [4]: < 0.0316 µM
IC50 [5]: < 0.0316 µM
IC50 [6]: < 0.0316 µM
viability, T/C [7]: 9.1%
viability, T/C [8]: 12.2%
viability, T/C [9]: 13.4%
viability, T/C [10]: 9.72%
viability, T/C [11]: 15.4%
viability, T/C [12]: 17.7%
viability, T/C [13]: 24.6%
viability, T/C [14]: 28.4%
viability, T/C [15]: 28.9%
viability, T/C [16]: 34.6%
viability, T/C [17]: 25%
viability, T/C [18]: 33.2%
viability, T/C [19]: 27.6%
viability, T/C [20]: 24.8%
viability, T/C [21]: 33.2%
viability, T/C [22]: 33.3%
viability, T/C [23]: 32.2%
viability, T/C [24]: 27.7%
viability, T/C [25]: 30%
viability, T/C [26]: 28.4%
viability, T/C [27]: 33.6%
viability, T/C [28]: 36%
viability, T/C [29]: 29.2%
viability, T/C [30]: 37.7%
viability, T/C [31]: 30%
viability, T/C [32]: 27.3%
viability, T/C [33]: 28.9%
viability, T/C [34]: 25.5%
viability, T/C [35]: 26.4%
viability, T/C [36]: 31.8%
viability, T/C [37]: 29.1%
viability, T/C [38]: 33.5%
viability, T/C [39]: 31.6%
viability, T/C [40]: 35.1%
viability, T/C [41]: 30.7%
viability, T/C [42]: 36.1%

O=C(c1cc(Cc2n[nH]c(=O)c3ccccc23)ccc1F)N1CCN(C(=O)C2CC2)CC1 + CNC(=O)c1ccc(Nc2nc(OC3CCCC3)c3c(-c4ccc5nc(C)oc5c4)c[nH]c3n2)c(OC)c1
IC50 [1]: 5.6 µM
IC50 [2]: < 0.0316 µM
IC50 [3]: < 0.0316 µM
IC50 [4]: < 0.0316 µM
IC50 [5]: < 0.0316 µM
IC50 [6]: < 0.0316 µM
viability, T/C [7]: 76.2%
viability, T/C [8]: 75.1%
viability, T/C [9]: 67.7%
viability, T/C [10]: 75.4%
viability, T/C [11]: 69.9%
viability, T/C [12]: 29.6%
viability, T/C [13]: 41.1%
viability, T/C [14]: 41.7%
viability, T/C [15]: 37.8%
viability, T/C [16]: 31.9%
viability, T/C [17]: 36.3%
viability, T/C [18]: 15.3%
viability, T/C [19]: 51.7%
viability, T/C [20]: 42.3%
viability, T/C [21]: 35.5%
viability, T/C [22]: 33.7%
viability, T/C [23]: 33%
viability, T/C [24]: 13.7%
viability, T/C [25]: 39.9%
viability, T/C [26]: 32.2%
viability, T/C [27]: 29.8%
viability, T/C [28]: 33.3%
viability, T/C [29]: 23.2%
viability, T/C [30]: 10.2%
viability, T/C [31]: 32.8%
viability, T/C [32]: 34.1%
viability, T/C [33]: 26.3%
viability, T/C [34]: 33.5%
viability, T/C [35]: 31%
viability, T/C [36]: 8.47%
viability, T/C [37]: 29.5%
viability, T/C [38]: 29.9%
viability, T/C [39]: 24.8%
viability, T/C [40]: 23.9%
viability, T/C [41]: 23.2%
viability, T/C [42]: 6.48%
